Source: patent US20240317816A1, “PEPTIDES FOR IMMUNOTHERAPY” (Genevive, Inc., priority 2021, published 2024)

Experiments:
RENCA cells = experiment: RENCA murine adenocarcinoma model, anti-tumor activity; assay type: in vivo, BALB/c female mice; details: for tumor volume: 2.5 mg/kg peritumorally daily; for survival: initial dosing
Description: To determine anti-tumor activity of SG-3-00802 in vivo, the RENCA murine adenocarcinoma model was used. It is a syngeneic, standardized experimental model of metastatic RCC. Briefly, BALB/c female mice were inoculated subcutaneously with RENCA cells. Established tumors were treated daily with 2.5 mg/kg SG-3-00802 peritumorally, alone or in combination with intraperitoneal administration of 10 mg/kg anti-PD-1 antibody.
Additional studies were performed to test survival and tumor volume responses to a re-challenge event. In one study, mice were allocated into dosing groups when tumors reached ˜100 mm^3. During the initial dosing study, time 0 was the first day of seven days of dosing. […] Re-implantation was completed on day 39 after dosing completion. Treated mice were tumor free for >20 days before being re-challenge. […] Tumor volume and survival was monitored as previously described. In the re-challenge experiment, time 0 is day 10 after re-challenge dosing.
To determine anti-tumor activity of SG-3-05021 in vivo, the RENCA murine adenocarcinoma model was used. Briefly, BALB/c female mice were inoculated subcutaneously with RENCA cells. Established tumors were treated daily with 2.5 mg/kg SG-3-05021 peritumorally, alone or in combination with intraperitoneal administration of 10 mg/kg anti-PD-1 antibody.

[1] = test system: (LPS)-stimulated human monocyte-derived DCs; experiment: CXCL10 induction in LPS-stimulated dendritic cells; assay type: cell-based; details: for dose-dependent response of CXCL10 induction: dose response analysis, same assay setup; for CXCL10 induction: supernatants of low dose LPS-stimulated dendritic cells, vs other peptides and negative control peptide
Description: Studies were performed to identify target peptides that induced CXCL10 production. Target peptides identified from human microbiomes from patients that responded to anti-PD-1 therapy were each synthesized and tested for TNF-α, CXCL10, IL6, and INF-γ induction. Fifteen peptides with high CXCL10 induction were identified for additional testing, indicated with asterisks in the figure (FIG. 1). […] Peptide sequences and characteristics can be found in Tables 4-7.
Peptides that bound to specific immune cells (1% of the screened peptides) were then evaluated for activity in cell-based assays using isolated primary human T cells, DCs, and macrophages. Immune-driven inhibition of tumor growth relies on DC-mediated recruitment of effector T cells, mainly via CXCL9 and CXCL10. […] Peptides inducing robust CXCL10 secretion (LPS)-stimulated human monocyte-derived DCs from multiple donors, with a mean induction of >2-fold of CXCL10 over OVA323 339 control peptide in DCs were selected for dose response analysis (n=36). […] To confirm cross species activity, 10 of the 15 peptides with EC50<10 μM were screened in vitro for CXCL10 induction in mouse bone marrow DCs.

CCR7 = target: T1, CCR7 (Homo sapiens, UniProt P32248); experiment: gpcrMAX PathHunter β-Arrestin Assay; assay type: cell-based
T1 construct: expressed in transfected cells
T1 sequence (P32248 25-378): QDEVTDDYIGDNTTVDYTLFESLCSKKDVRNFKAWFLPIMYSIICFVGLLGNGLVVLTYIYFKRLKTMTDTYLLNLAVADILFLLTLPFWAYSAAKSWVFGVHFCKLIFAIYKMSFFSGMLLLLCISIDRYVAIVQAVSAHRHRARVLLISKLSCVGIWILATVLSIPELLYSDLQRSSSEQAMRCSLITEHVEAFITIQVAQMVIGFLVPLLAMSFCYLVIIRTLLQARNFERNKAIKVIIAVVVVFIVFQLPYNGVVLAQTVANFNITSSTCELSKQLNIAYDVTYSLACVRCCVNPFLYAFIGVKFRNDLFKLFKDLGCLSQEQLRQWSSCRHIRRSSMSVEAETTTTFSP
Text: (§1) The PathHunter® β-Arrestin Assay monitored activation of a panel of 168 G-protein coupled receptors (GPCRs) with […] activation of the GPCR in agonist and antagonist mode.
(§2) where the test sample is the peptide, the vehicle control is DMSO (0% activity), and the control ligand is control compound (100% activity).
(§3) Peptides SG-3-00802 and SG-3-05021 were identified as an agonist, an antagonist, a PAM (Positive Allosteric Modulator), or an inverse-agonist. Agonist, antagonist, PAM, and inverse-agonist were identified according to the guidelines in Table 8. The basal activity/noise is a % activity of −20% to 20% for both agonist and antagonist modes. A PAM (Positive Allosteric Modulator) binds to a receptor, at a different site than the agonist, to change the receptor's response to the agonist. An inverse-Agonist is a binding partner with agonistic shutting down of basal activity in the cell. An antagonist antagonizes the activity of a particular binding partner.

CXCR4 = target: T2, CXCR4 (Homo sapiens, UniProt P61073); experiment: gpcrMAX PathHunter β-Arrestin Assay; assay type: cell-based
T2 construct: host or cells: U2OS
T2 sequence (P61073 whole entry): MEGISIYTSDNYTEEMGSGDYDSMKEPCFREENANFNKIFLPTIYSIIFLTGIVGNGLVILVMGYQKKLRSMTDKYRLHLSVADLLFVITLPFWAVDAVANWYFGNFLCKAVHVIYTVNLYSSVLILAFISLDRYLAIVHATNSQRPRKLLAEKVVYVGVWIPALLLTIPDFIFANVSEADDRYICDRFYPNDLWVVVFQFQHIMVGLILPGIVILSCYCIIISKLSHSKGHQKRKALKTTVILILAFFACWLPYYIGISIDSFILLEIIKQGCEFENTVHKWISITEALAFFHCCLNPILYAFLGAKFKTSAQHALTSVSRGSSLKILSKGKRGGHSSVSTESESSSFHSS
Text: as §1, §2, §3

CXCR3 = target: T3, CXCR3 (Homo sapiens, UniProt P49682); experiment: gpcrMAX PathHunter β-Arrestin Assay; assay type: cell-based
T3 sequence (P49682 1-368): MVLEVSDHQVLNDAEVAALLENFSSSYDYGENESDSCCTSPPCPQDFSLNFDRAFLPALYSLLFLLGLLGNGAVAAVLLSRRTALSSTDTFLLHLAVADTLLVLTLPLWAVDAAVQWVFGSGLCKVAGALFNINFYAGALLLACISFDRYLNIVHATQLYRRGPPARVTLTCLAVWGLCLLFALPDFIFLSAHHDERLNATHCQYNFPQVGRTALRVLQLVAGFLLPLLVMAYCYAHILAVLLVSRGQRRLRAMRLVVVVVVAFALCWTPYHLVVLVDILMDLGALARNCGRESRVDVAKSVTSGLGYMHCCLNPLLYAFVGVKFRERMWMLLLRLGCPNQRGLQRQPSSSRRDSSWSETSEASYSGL
Text: as §1, §2, §3

[2] = in combination with 10 mg/kg i.p. anti-PD-1

LGKTDWIEKYFKVKKEKIDKMQRFLQG (peptide for immunotherapy; SG-3-05021)
tumor volume (RENCA cells; alone, vs PBS): decrease in tumor volume
tumor volume (RENCA cells; [2]): decrease in tumor volume
survival (RENCA cells; in combination with anti-PD-1): survived a longer time
survival (RENCA cells; peptide alone): survived a longer time
dose-dependent response of CXCL10 induction [1]: robust dose-dependent response
CXCL10 induction [1]: high CXCL10 inducers
gpcrMAX Agonist Mode (% Agonist Activity) (CCR7): 0%
gpcrMAX Antagonist Mode (% Antagonist Activity) (CCR7): −18%
gpcrMAX Agonist Mode (% Agonist Activity) (CXCR4): 1%
gpcrMAX Antagonist Mode (% Antagonist Activity) (CXCR4): 10%
gpcrMAX Agonist Mode (% Agonist Activity) (CXCR3): −4%
gpcrMAX Antagonist Mode (% Antagonist Activity) (CXCR3): −20%

MKVRPSVKPMCEKCKIIRRKGRVMVICENPKHKQRQG [SG-3-00802]
tumor volume (RENCA cells; alone, vs PBS): robust decrease in tumor volume
tumor volume (RENCA cells; [2]): robust decrease in tumor volume
survival (RENCA cells; in combination with anti-PD-1): increased survival
survival (RENCA cells; peptide alone): increased survival
# of animals with complete tumor regression out of total animals per group (primary study) (RENCA cells; primary study): 2/12
dose-dependent response of CXCL10 induction [1]: robust dose-dependent response
CXCL10 induction [1]: high CXCL10 inducers
Interpretation (CCR7): No
gpcrMAX Agonist Mode (% Agonist Activity) (CCR7): 0%
gpcrMAX Antagonist Mode (% Antagonist Activity) (CCR7): 0%
gpcrMAX Agonist Mode (% Agonist Activity) (CXCR4): −14%
gpcrMAX Antagonist Mode (% Antagonist Activity) (CXCR4): 99%
gpcrMAX Agonist Mode (% Agonist Activity) (CXCR3): −4%
gpcrMAX Antagonist Mode (% Antagonist Activity) (CXCR3): −32%
